This experiment relates to MRSA. Nature of the experiment: murine MRSA skin and soft tissue infection (SSTI) model. It is filed as in vivo, mice. An excerpt: Peroxisome Proliferator Activator Receptor-γ (PPAR-γ) is a nuclear receptor that inhibits inflammation and redirects macrophages towards an M2 phenotype by driving Arg-1, Scd-1, SSAT and fatty acid synthesis gene expression. PPAR-γ is therefore involved in the development of adipocytes as well as M2-MΦs.

With `O=C(Nc1ccccc1)c1cc([N+](=O)[O-])ccc1Cl` [GW9662], the “number of viable bacteria in wounds/abscesses” value (day 12) is recorded as “greatly increased”. In addition, the “resolution of MRSA SSTIs” value (mouse, in vivo) is “non-resolving”. In the case of `CCc1ccc(CCOc2ccc(CC3SC(=O)NC3=O)cc2)nc1` (centres unmarked) [Pioglitazone], the “reduction of average time to healing” value (mouse, in vivo) is given as approximately 5 days. Regarding `CN(CCOc1ccc(CC2SC(=O)NC2=O)cc1)c1ccccn1` (centres unmarked) [Rosiglitazone], for the setting “mice lacking myeloid PPAR-γ”, the “beneficial effects of treatment in PPAR-γ-/- mice” value is recorded as “no effect”. In addition, the “reduction of average time to healing” value (mouse, in vivo) is approximately 5 days.
